We go through 7 compounds from patent US20260209249A1, “NOVEL TRICYCLIC COMPOUND AS KRAS G12D INHIBITOR, AND USE THEREOF” (SK Biopharmaceuticals Co., priority 2022, published 2026).

The target of assay [1] is T1, GDP-KRAS G12D mutant protein (Homo sapiens, UniProt P01116, G12D).
T1 construct: purchased Daegu Gyeongbuk Medical Innovation Foundation (DGMIF), made to order
Kind of assay: Differential scanning fluorimetry (DSF) binding affinity to GDP-KRAS G12D mutant protein. The conditions noted are these: DSF thermal shift, 10 μM compound, 4 μg KRAS protein. The essentials: (§1)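 Thermal shift ΔTm was measured at 10 μM compound over a 25–99 °C ramp (0.05 °C/s), read at 580 nm ex/623 nm em with SYPRO Orange (2×). The protein (4 μg) was preincubated with compound for 30 min at room temperature, in 50 mM HEPES pH 7.5 for GppNHp-KRAS G12D or in kit buffer for GDP-KRAS G12D.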

In assay [2] the target is T2, GppNHp-KRAS G12D mutant protein (Homo sapiens, UniProt P01116, G12D).
T2 construct: purchased Daegu Gyeongbuk Medical Innovation Foundation (DGMIF), made to order
Kind of assay: Differential scanning fluorimetry (DSF) binding affinity to GppNHp-KRAS G12D mutant protein. The settings on record: DSF thermal shift, 10 μM compound, 4 μg KRAS protein, 50 mM HEPES (pH 7.5). The procedure, abridged:
as §1
Background: Differential scanning fluorimetry follows unfolding on heating by fluorescence.

Assay [3] has as its system ERK phosphorylation (pERK) induced by KRAS G12D mutation. Kind of assay: Inhibitory activity against ERK phosphorylation (pERK) induced by KRAS G12D mutation, immunofluorescence assay in AsPC-1 cells. The assay is classed as cell-based. The conditions noted are these: Homo sapiens, ASPC1, 3 h drug treatment, pERK (Thr202/Tyr204) signal normalized to DAPI. The source says:
Test Example 2: Measurement of Inhibitory Activity Against ERK Phosphorylation (pERK) Induced by KRAS G12D Mutation (Immunofluorescence Assay)
Immunofluorescence is a method used to detect specific substances within cells or tissues through antigen-antibody interactions, and allows for the identification of the presence or absence of specific proteins by using antibodies labeled with various fluorescent dyes. After a primary antibody that recognizes a specific protein selectively binds to the epitope, a fluorescent antibody (secondary antibody) is bound to the primary antibody.
It was confirmed as follows that the compounds according to an embodiment of the present application inhibit phosphorylation of extracellular signal-regulated kinases (Phospho-ERK, pERK) induced by KRAS G12D mutation.
AsPC-1 cells were seeded at a density of 10,000 cells/well in RPMI-1640 medium containing 10% FBS and 1% Penicillin-Streptomycin in 384-well plates (Perkinelmer, #6057300) and allowed to attach for 16 h. After the cells attached to the plate, the cells were treated with drugs at a maximum concentration of 10 μM with a 3-fold serial dilution. After 3 h of drug treatment, the medium was removed and the cells were treated with 50 μL of 4% formaldehyde (Biosesang, #PC2031-050-00) for 20 min and washed three times with 50 μL of phosphate buffered saline (PBS).
50 μL of PBS containing 0.3% Triton X-100 (Sigma, #T8787-250 mL) was added and reacted for 20 minutes to allow antibody penetration into cells, and then the plate was washed three times with 50 μL of PBS. To block nonspecific binding of antibodies to the plate, 50 μL of PBS containing 2% BSA (sigma, #A7906-500G) and 0.01% Tween-20 (Sigma, #P1379-500 mL) (hereinafter referred to as PBS-T) was added, and reacted at room temperature for 2 hours.
To detect pERK, the primary antibody (cell signaling, #9101) was diluted 1:500 in PBS-T containing 2% BSA, 50 μL was added, and the plate was stored in a refrigerator at 4° C. for 16 hours to react, followed by washing three times with 50 μL of PBS-T. To visualize the primary antibody, the secondary antibody, i.e., anti-rabbit-Alexa Fluor 488 (ThermoFisher, #A11008), was diluted 1:1000 in PBS-T containing 2% BSA, 50 μL was added, and after reaction at room temperature for 1 hour, the plate was washed three times with 50 μL of PBS-T. Next, to visualize the nuclei of cells, DAPI (Thermofisher, #62248, 1 mg/mL) was diluted 1:1000 in PBS-T, 50 μL each was added, reacted at room temperature for 10 minutes, and washed three times with 50 μL of PBS-T. 50 μL of PBS-T was added to each well, and the plate was read for fluorescence value using HCS equipment (MOLECULAR DEVICES/ImageXpress Micro).
Data analysis was performed by normalizing the pERK (Thr202/Tyr204) signal to the DAPI signal and calculating the percentage relative to the DMSO as a control. The IC50 value was determined by fitting a four-parameter dose-response curve using the GraphPad Prism software (version 8.4.3), and interpolating the concentration at which 50% inhibition occurred. The results of calculating the inhibitory efficacy of the compounds according to one embodiment of the present application against KRAS G12D mutation-induced pERK activity are shown in Table 3.

Broadly, the IC50 is the concentration at which inhibition is half-maximal. The low end stands for greater potency in that assay, the high end for weaker potency in that assay. For `Oc1cc(-c2cc3nc(OC[C@@]45CCCN4C[C@H](F)C5)nc(N4C[C@H]5CC[C@@H](C4)N5)c3n3ccnc23)c2c(F)c(F)ccc2c1` [Example 3, 4-(1-((1 R,5S)-3,8-diazabicyclo[3.2.1]octan-3-yl)-3-(((2R,7aS)-2-fluorotetrahydro-1H-pyrrolizin-7a(5H)-yl)methoxy)imidazo[1′,2′:1,6]pyrido[3,2-d]pyrimidin-6-yl)-5,6-difluoronaphthalen-2-ol], the “GDP-KRAS G12D (ΔTmD, ° C.)” value in assay [1] came to 6.05 °C. Further, the “GppNHp-KRAS G12D (ΔTmD, ° C.)” value in assay [2] turned out to be 1.90 °C. Besides, the concentration for half-maximal inhibition (IC50) in assay [3] was 1420 nM.
Taken in the same sequence, the figures for `CN(C)C1(CNc2nc(OC[C@@]34CCCN3C[C@H](F)C4)nc3cc(-c4cc(O)cc5ccc(F)c(F)c45)c4nccn4c23)CCC1` [Example 5, 4-(1-(((1-(dimethylamino)cyclobutyl)methyl)amino)-3-(((2R,7aS)-2-fluorotetrahydro-1H-pyrrolizin-7a(5H)-yl)methoxy)imidazo[1′,2′:1,6]pyrido[3,2-d]pyrimidin-6-yl)-5,6-difluoronaphthalen-2-ol] were 4.27 °C, 1.60 °C and 953 nM.
As to `C#Cc1c(F)ccc2cc(O)cc(-c3cc4nc(OC[C@@]56CCCN5C[C@H](F)C6)nc(NCC5(N(C)C)CCC5)c4n4ccnc34)c12` [Example 6, 4-(1-(((1-(dimethylamino)cyclobutyl)methyl)amino)-3-(((2R,7aS)-2-fluorotetrahydro-1H-pyrrolizin-7a(5H)-yl)methoxy)imidazo[1′,2′:1,6]pyrido[3,2-d]pyrimidin-6-yl)-5-ethynyl-6-fluoronaphthalen-2-ol], in assay [3], 2320 nM corresponded to half-maximal inhibition (IC50).
Regarding `C#Cc1c(F)ccc2cc(O)cc(-c3cc4nc(OCC5(CN6C[C@H]7C[C@@H]6CO7)CC5)nc(N5C[C@H]6CC[C@@H](C5)N6)c4n4ccnc34)c12` [Example 10, 4-(3-((1-(((1 R,4R)-2-oxa-5-azabicyclo[2.2.1]heptan-5-yl)methyl)cyclopropyl)methoxy)-1-((1 R,5S)-3,8-diazabicyclo[3.2.1]octan-3-yl)imidazo[1′,2′:1,6]pyrido[3,2-d]pyrimidin-6-yl)-5-ethynyl-6-fluoronaphthalen-2-ol], the “GDP-KRAS G12D (ΔTmD, ° C.)” value in assay [1] turned out to be 9.00 °C. Further, the “GppNHp-KRAS G12D (ΔTmD, ° C.)” value in assay [2] was found to be 2.79 °C. Further, the IC50 in assay [3] was 2100 nM.
Take `C#Cc1c(F)ccc2cc(O)cc(-c3cc4nc(OCC5(CN6CCCC6)CC5)nc(N5[C@@H]6CC[C@H]5CNC6)c4n4ccnc34)c12` [Example 17, 4-(1-((1R,5S)-3,8-diazabicyclo[3.2.1]octan-8-yl)-3-((1-(pyrrolidin-1-ylmethyl)cyclopropyl)methoxy)imidazo[1′,2′:1,6]pyrido[3,2-d]pyrimidin-6-yl)-5-ethynyl-6-fluoronaphthalen-2-ol]: the “GDP-KRAS G12D (ΔTmD, ° C.)” value in assay [1] was determined as 9.45 °C. The “GppNHp-KRAS G12D (ΔTmD, ° C.)” value in assay [2] amounted to 4.71 °C. The same compound came in with a concentration for half-maximal inhibition (IC50) in assay [3] of 1170 nM.
On to `C#Cc1c(F)ccc2cc(O)cc(-c3cc4nc(OC[C@]56CCCN5CC(=C)C6)nc(N5[C@@H]6CC[C@H]5CNC6)c4n4ccnc34)c12` [Example 21, 4-(1-((1R,5S)-3,8-diazabicyclo[3.2.1]octan-8-yl)-3-(((R)-2-methylenetetrahydro-1H-pyrrolizin-7a(5H)-yl)methoxy)imidazo[1′,2′:1,6]pyrido[3,2-d]pyrimidin-6-yl)-5-ethynyl-6-fluoronaphthalen-2-ol], for which the “GDP-KRAS G12D (ΔTmD, ° C.)” value in assay [1] was determined as 8.13 °C. For the same compound, the “GppNHp-KRAS G12D (ΔTmD, ° C.)” value in assay [2] was determined as 4.72 °C. Moreover, in assay [3], half-maximal inhibition (IC50) required 196 nM.
In assay [3], `Cc1cc2c(o1)c(-c1cc(O)cc3ccccc13)c(F)c1nc(OC[C@@]34CCCN3C[C@H](F)C4)nc(NCC3(N(C)C)CCC3)c12` [Example 47, 4-(1-(((1-(dimethylamino)cyclobutyl)methyl)amino)-5-fluoro-3-(((2R,7aS)-2-fluorotetrahydro-1H-pyrrolizin-7a(5H)-yl)methoxy)-8-methylfuro[3,2-n]quinazolin-6-yl)naphthalen-2-ol] yielded an IC50 of 7980 nM.
